Results: US4007167A, “Antibiotic BM123 and production thereof” (American Cyanamid Company, priority 1975, dated 1977)

How the values were obtained:
[1] = tested on: Salmonella gallinarum 605; assay: in vitro MIC, standard agar dilution procedure; type: cell-based; conditions: for MIC: Salmonella enterica, read-out: Minimal Inhibitory Concentration
[2] = tested on: Streptococcus faecalis GK; assay: in vitro MIC, standard agar dilution procedure; type: cell-based; conditions: for MIC: Enterococcus faecalis, read-out: Minimal Inhibitory Concentration
[3] = tested on: Pseudomonas aeruginosa 1A7; assay: in vitro MIC, standard agar dilution procedure; type: cell-based; conditions: for MIC: read-out: Minimal Inhibitory Concentration
[4] = tested on: Proteus morganii ATCC 8019; assay: in vitro MIC, standard agar dilution procedure; type: cell-based; conditions: for MIC: Morganella morganii, ATCC8019, read-out: Minimal Inhibitory Concentration
[5] = tested on: Staphylococcus aureus Rose ATCC 14154; assay: in vitro MIC, standard agar dilution procedure; type: cell-based; conditions: for MIC: ATCC14154, read-out: Minimal Inhibitory Concentration
[6] = tested on: Mycobacterium smegmatis ATCC 607; assay: in vitro MIC, standard agar dilution procedure; type: cell-based; conditions: for MIC: Mycolicibacterium smegmatis, ATCC607, read-out: Minimal Inhibitory Concentration
[7] = tested on: Staphylococcus aureus 4050B122-3; assay: in vitro MIC, standard agar dilution procedure; type: cell-based; conditions: for MIC: 4050B1223, read-out: Minimal Inhibitory Concentration
Shigella shiga = assay: microbe, parasite or virus in culture; type: cell-based; conditions: for MIC: Shigella, read-out: Minimal Inhibitory Concentration; for Minimal Inhibitory Concentration: Shigella shiga, agar dilution
[8] = tested on: Enterobacter aerogenes 75; assay: in vitro MIC, standard agar dilution procedure; type: cell-based; conditions: for MIC: Klebsiella aerogenes, read-out: Minimal Inhibitory Concentration
[9] = tested on: Staphylococcus aureus Smith ATCC 13709; assay: in vitro MIC, standard agar dilution procedure; type: cell-based; conditions: for MIC: ATCC13709, read-out: Minimal Inhibitory Concentration
[10] = tested on: Bacillus cereus ATCC 9634; assay: in vitro MIC, standard agar dilution procedure; type: cell-based; conditions: for MIC: ATCC9634, read-out: Minimal Inhibitory Concentration
[11] = tested on: Bacillus subtilis No. 18 Stansly R-76; assay: in vitro MIC, standard agar dilution procedure; type: cell-based; conditions: for MIC: read-out: Minimal Inhibitory Concentration
[12] = tested on: Corynebacterium xerosis NRRL B-1397; assay: in vitro MIC, standard agar dilution procedure; type: cell-based; conditions: for MIC: NRRLB1397, read-out: Minimal Inhibitory Concentration
Sarcina lutea ATCC 9341 = assay: in vitro MIC, standard agar dilution procedure; type: cell-based; conditions: for MIC: Micrococcus luteus, ATCC9341, read-out: Minimal Inhibitory Concentration
Klebsiella pneumoniae AD [13] = assay: in vitro MIC, standard agar dilution procedure; type: cell-based; conditions: for MIC: read-out: Minimal Inhibitory Concentration
[14] = tested on: Bacillus subtilis No. 17 Stansly R-78; assay: in vitro MIC, standard agar dilution procedure; type: cell-based; conditions: for MIC: read-out: Minimal Inhibitory Concentration
Escherichia coli No. 29 = assay: in vitro MIC, standard agar dilution procedure; type: cell-based; conditions: for MIC: read-out: Minimal Inhibitory Concentration
[15] = tested on: Proteus vulgaris ATCC 9484; assay: in vitro MIC, standard agar dilution procedure; type: cell-based; conditions: for MIC: ATCC9484, read-out: Minimal Inhibitory Concentration
[16] = tested on: Salmonella typhosa ATCC 6539; assay: in vitro MIC, standard agar dilution procedure; type: cell-based; conditions: for MIC: Salmonella enterica, read-out: Minimal Inhibitory Concentration; for Minimal Inhibitory Concentration: Salmonella typhosa ATCC 6539, agar dilution
[17] = tested on: Proteus mirabilis ATCC 4671; assay: in vitro MIC, standard agar dilution procedure; type: cell-based; conditions: for MIC: ATCC4671, read-out: Minimal Inhibitory Concentration
[18] = tested on: Pseudomonas aeruginosa ATCC 10145; assay: in vitro MIC, standard agar dilution procedure; type: cell-based; conditions: for MIC: ATCC10145, read-out: Minimal Inhibitory Concentration
Escherichia coli U-311 = assay: in vitro MIC, standard agar dilution procedure; type: cell-based; conditions: for MIC: U311, read-out: Minimal Inhibitory Concentration
Bacillus globigii = assay: in vitro MIC, standard agar dilution procedure; type: cell-based
Escherichia coli US311 = assay: control of systemic lethal infection in mice, single subcutaneous dose; type: in vivo, mice (Carworth Farms CF-1)
Description: (§1) These new substances show high in vivo antibacterial activity in mice against Proteus mirabilis ATCC 4671, Klebsiella pneumoniae AD, and Escherichia coli US311 when administered by a single subcutaneous dose to groups of Carworth Farms CF-1 mice, weight about 20 gm., infected intraperitoneally with a lethal dose of these bacteria in 10^-^1.6 , 10^-^4 and 10^-^3 trypticase soy broth TSP dilutions, respectively, of a 5 hour TSP blood culture.
(§2) Table VII, below, illustrates the in vivo antibacterial activity of BM123α, BM123β, and BM123γ against these three bacteria.

Klebsiella pneumoniae AD [19] = assay: as above; type: in vivo, mice (Carworth Farms CF-1)
Description: as §1, §2

[20] = tested on: Proteus mirabilis ATCC 4671; assay: as above; type: in vivo, mice (Carworth Farms CF-1)
Description: as §1, §2

a variety of organisms = assay: in vivo antibacterial activity (general statement); conditions: in words
[21] = single subcutaneous dose 32 mg./kg.
[22] = single subcutaneous dose 128 mg./kg.
[23] = single subcutaneous dose 512 mg./kg.

CC1OC(Oc2ccc(/C=C/C(=O)NCCCNCCCCN)cc2)C(NC(=N)N)C(O)C1NC(=O)NC1OCC(OC2OCC(O)C3NC(=O)N(C(N)=O)C23)C(O)C1NC(N)=O (single isomer, unassigned) [BM123γ1]
0.05 µg/mL: MIC (Klebsiella pneumoniae AD [13]) | MIC (Escherichia coli No. 29) | MIC [16]
2.5 µg/mL: MIC [2] | MIC [18]
0.5 µg/mL: MIC (Sarcina lutea ATCC 9341)
0.25 µg/mL: MIC [5] | MIC [7] | MIC (Shigella shiga) | MIC [10] | MIC [11] | MIC [12] | MIC [17]
5 µg/mL: MIC [3]
0.1 µg/mL: MIC [1] | MIC [4] | MIC [6] | MIC [8] | MIC [9] | MIC [14] | MIC [15] | MIC (Escherichia coli U-311)

CC1OC(Oc2ccc(/C=C/C(=O)NCCCNCCCCN)cc2)C(NC(=N)N)C(O)C1NC(=O)NC1OCC(OC2OCC3OC(=O)NC3C2NC(N)=O)C(O)C1NC(N)=O (single isomer, unassigned) [BM123γ2]
10 µg/mL: MIC [3]
2.5 µg/mL: MIC [2]
0.1 µg/mL: MIC [1] | MIC [4] | MIC [8] | MIC [14] | MIC (Escherichia coli No. 29) | MIC [15] | MIC (Escherichia coli U-311)
0.25 µg/mL: MIC [5] | MIC [6] | MIC (Shigella shiga) | MIC [9] | MIC [11] | MIC [12] | MIC [17]
0.05 µg/mL: MIC (Klebsiella pneumoniae AD [13]) | MIC [16]
1 µg/mL: MIC (Sarcina lutea ATCC 9341)
0.5 µg/mL: MIC [7] | MIC [10]
5 µg/mL: MIC [18]

N=C(N)NCCCC(N)C(=O)NC1C(OC2C(CO)OC(OC3C(O)C(NC(=O)C4CCC(=N)N4)C(O)C(O)C3OC(N)=O)C(O)C2O)OC(CO)C(O)C1O (stereo not drawn) [BM123α]
2/5: Alive/Total Mice Tested, 7 Days After Infection [20, 21]
> 200 µg/mL: Minimal Inhibitory Concentration [2] | Minimal Inhibitory Concentration [3]
10 µg/mL: Minimal Inhibitory Concentration (Bacillus globigii) | Minimal Inhibitory Concentration [8] | Minimal Inhibitory Concentration [12] | Minimal Inhibitory Concentration [14]
20 µg/mL: Minimal Inhibitory Concentration [9] | Minimal Inhibitory Concentration [11]
100 µg/mL: Minimal Inhibitory Concentration [5] | Minimal Inhibitory Concentration [7] | Minimal Inhibitory Concentration [10]
1/5: Alive/Total Mice Tested, 7 Days After Infection (Escherichia coli US311; [21])
5 µg/mL: Minimal Inhibitory Concentration [1] | Minimal Inhibitory Concentration [4] | Minimal Inhibitory Concentration [6] | Minimal Inhibitory Concentration (Klebsiella pneumoniae AD [13]) | Minimal Inhibitory Concentration (Escherichia coli No. 29) | Minimal Inhibitory Concentration [15] | Minimal Inhibitory Concentration [16] | Minimal Inhibitory Concentration (Escherichia coli U-311)
3/5: Alive/Total Mice Tested, 7 Days After Infection [20, 22]
200 µg/mL: Minimal Inhibitory Concentration [18]
5/5: Alive/Total Mice Tested, 7 Days After Infection (Escherichia coli US311; [22]) | Alive/Total Mice Tested, 7 Days After Infection (Escherichia coli US311; [23]) | Alive/Total Mice Tested, 7 Days After Infection [20, 23]
50 µg/mL: Minimal Inhibitory Concentration (Shigella shiga) | Minimal Inhibitory Concentration (Sarcina lutea ATCC 9341) | Minimal Inhibitory Concentration [17]
4/5: Alive/Total Mice Tested, 7 Days After Infection (Klebsiella pneumoniae AD [19]; [23])
active in vivo: in vivo activity against a variety of organisms (a variety of organisms)
0/5: Alive/Total Mice Tested, 7 Days After Infection (Klebsiella pneumoniae AD [19]; [21]) | Alive/Total Mice Tested, 7 Days After Infection (Klebsiella pneumoniae AD [19]; [22]) | Alive/Total Mice Tested, 7 Days After Infection ([20]; single subcutaneous dose 8 mg./kg.)

CC1OC(Oc2ccc(/C=C/C(=O)NCCCNCCCCN)cc2)C(NC(=N)N)C(O)C1NC(=O)NC1OCC(OC2OCC(O)C(N)C2NC(N)=O)C(O)C1NC(N)=O (stereo not drawn) [BM123β1]
25 µg/mL: Minimal Inhibitory Concentration [18]
> 100 µg/mL: Minimal Inhibitory Concentration [2]
0.5 µg/mL: Minimal Inhibitory Concentration [1] | Minimal Inhibitory Concentration [4] | Minimal Inhibitory Concentration [8] | Minimal Inhibitory Concentration [9] | Minimal Inhibitory Concentration [17]
0.25 µg/mL: Minimal Inhibitory Concentration (Bacillus globigii) | Minimal Inhibitory Concentration (Klebsiella pneumoniae AD [13]) | Minimal Inhibitory Concentration [14] | Minimal Inhibitory Concentration (Escherichia coli No. 29) | Minimal Inhibitory Concentration [15] | Minimal Inhibitory Concentration [16] | Minimal Inhibitory Concentration (Escherichia coli U-311)
100 µg/mL: Minimal Inhibitory Concentration [3]
2.5 µg/mL: Minimal Inhibitory Concentration [6] | Minimal Inhibitory Concentration [7] | Minimal Inhibitory Concentration (Shigella shiga) | Minimal Inhibitory Concentration [10] | Minimal Inhibitory Concentration [11] | Minimal Inhibitory Concentration [12] | Minimal Inhibitory Concentration (Sarcina lutea ATCC 9341)
1 µg/mL: Minimal Inhibitory Concentration [5]

Gentamicin sulfate [reference compound]
2.5 µg/mL: Minimal Inhibitory Concentration [2] | Minimal Inhibitory Concentration [18]
0.1 µg/mL: Minimal Inhibitory Concentration [4] | Minimal Inhibitory Concentration [5] | Minimal Inhibitory Concentration [6] | Minimal Inhibitory Concentration [8] | Minimal Inhibitory Concentration [11] | Minimal Inhibitory Concentration [15] | Minimal Inhibitory Concentration [16]
0.025 µg/mL: Minimal Inhibitory Concentration (Bacillus globigii) | Minimal Inhibitory Concentration [12] | Minimal Inhibitory Concentration [14]
0.25 µg/mL: Minimal Inhibitory Concentration [7] | Minimal Inhibitory Concentration (Shigella shiga) | Minimal Inhibitory Concentration [10] | Minimal Inhibitory Concentration (Sarcina lutea ATCC 9341) | Minimal Inhibitory Concentration [17]
5 µg/mL: Minimal Inhibitory Concentration [3]
0.05 µg/mL: Minimal Inhibitory Concentration [1] | Minimal Inhibitory Concentration [9] | Minimal Inhibitory Concentration (Klebsiella pneumoniae AD [13]) | Minimal Inhibitory Concentration (Escherichia coli No. 29) | Minimal Inhibitory Concentration (Escherichia coli U-311)
